From US9204653B2, “5-fluoro pyrimidine derivatives” (DOW AGROSCIENCES LLC, priority 2008, dated 2015) come the findings set out here.

Molecules are shown by their SMILES. Values joined by “and” are separate entries in the source; they are usually repeats but may differ in a detail not shown here. Equal values may be shown once. Read-outs that look alike come from different tables or passages of the source.

In experiment [1] the test system is Mycosphaerella graminicola; Anamorph: Septoria tritici; Bayer Code SEPTTR. Put plainly: Leaf blotch of wheat, foliar fungicide treatment, one day protectant (1DP) or three day curative (3DC). Type of experiment: in vivo, Septoria tritici on wheat plants (variety Yuma). As to conditions: Zymoseptoria tritici, percent disease control rating.
Experiment [2] has as its system Venturia inaequalis; Bayer Code VENTIN. In words: Apple scab. Type of experiment: in vivo. Conditions: 24 h, % disease control rating, one day protectant; for pest or weed control at 25 ppm: read-out: VENTIN 1 DP 25 ppm; for pest or weed control at 75 ppm: read-out: VENTIN 1 DP 75 ppm.
Experiment [3] has as its system Mycosphaerella graminicola; Anamorph: Septoria tritici; Bayer Code SEPTTR. Put plainly: Fungicidal activity as a seed treatment: leaf blotch of wheat. Type of experiment: in vivo, Septoria tritici on wheat variety Yuma. Conditions: for % Control (SEPTTR, seed treatment): 10% SC formulation; for Pot 1 to Pot 8 values (SEPTTR disease severity on treated plants): single pots, 8 replicates. The text has this: 6. Evaluation of Fungicidal Activity as a Seed Treatment: Leaf Blotch of Wheat (Mycosphaerella graminicola; Anamorph: Septoria tritici; Bayer Code […]) […] Seeds (10 seeds/pot) were planted in 1 inch pot containing 50% mineral soil/50% soil-less Metro mix. 8-day old seedlings were inoculated with an aqueous spore suspension of Septoria tritici, and 8 pots of plants were inoculated for each fungicide rate. After inoculation, plants were kept in 100% relative humidity (one day in a dark dew chamber followed by two days in a lighted mist room) to allow establishment of infection. The plants were then transferred to a greenhouse for disease to develop. When infection levels on untreated plants reached 95 to 100%, disease severities on treated plants were assessed. […] The following tables present the activity of typical compounds of the present disclosure when evaluated in these experiments. The effectiveness of the test compounds in controlling disease was determined by assessing the severity of disease on treated plants, then converting the severity to percent control based on the level of disease on untreated, inoculated plants. In each case of Tables I-V the rating scale is as follows: […]

Experiment [4] relates to Cercospora beticola; Bayer Code CERCBE. In words: Leaf spot of sugar beets. Type of experiment: in vivo, Cercospora beticola on sugar beets (variety HH-88). Conditions: 24 h, % disease control rating, one day protectant.
The subject of experiment [5] is Mycosphaerella fijiensis; BAYER Code MYCOFI. Put plainly: Black Sigatoka disease of banana. Type of experiment: in vivo, Mycosphaerella fijiensis on field grown banana plants. Conditions: % disease control rating, banana leaves, natural inoculum. The procedure:
5. Evaluation of Fungicidal Activity: Black Sigatoka Disease of Banana (Mycosphaerella fijiensis; BAYER Code MYCOFI): […] The leaves were subsequently allowed to become infected by natural inoculum, and were visually assessed for percent disease control ˜40-45 days later. The following tables present the activity of typical compounds of the present disclosure when evaluated in these experiments. The effectiveness of the test compounds in controlling disease was determined by assessing the severity of disease on treated plants, then converting the severity to percent control based on the level of disease on untreated, inoculated plants. In each case of Tables I-V the rating scale is as follows: […]

The mark [6] stands for this setting: 24 h, one day protectant (1DP), read-out: SETTTR 1DP 25 ppm.
Where [7] appears, read: 24 h, one day protectant (1DP), read-out: SEPTTR 1DP 100 ppm.
Setting [8] is: 72 h, three day curative (3DC), read-out: SEPTTR 3DC 25 ppm.
Where [9] appears, read: 72 h, three day curative (3DC), read-out: SEPTTR 3DC 100 ppm.

Take `Cc1ccc(COc2ncc(F)c(N)n2)cc1` [Compound 15]: the pest or weed control at 25 ppm in experiment [1] (setting [6]), in experiment [1] (setting [8]) and in experiment [2] was 76 to 100% each time. For the same compound, the pest or weed control at 100 ppm in experiment [1] (setting [7]) and in experiment [1] (setting [9]) was 76 to 100% throughout. In addition, the pest or weed control at 75 ppm in experiment [2] is 76 to 100%. For the same compound, in experiment [3] (lowest test rate of 1.48 g ai/100 kg seeds), the “control of SEPTTR via seed treatment (in words)” value was “nearly complete control”. In addition, the “% Control (SEPTTR, seed treatment)” value in experiment [3] (rate 1.48 g/100 kg seeds), in experiment [3] (rate 4.44 g/100 kg seeds), in experiment [3] (rate 13.3 g/100 kg seeds), in experiment [3] (rate 40 g/100 kg seeds) and in experiment [3] (rate 120 g/100 kg seeds) was “A (76-100)” throughout. In addition, the “Pot 1 to Pot 8 values (SEPTTR disease severity on treated plants)” value in experiment [3] (rate 1.48 g/100 kg seeds) is 3% (3×) and 1% (2×) and 0% (3×); in experiment [3] (rate 4.44 g/100 kg seeds), 0% (5×) and 1% (3×); in experiment [3] (rate 13.3 g/100 kg seeds) it was 0% (4×) and 1% (4×); in experiment [3] (rate 40 g/100 kg seeds), 0% (5×) and 1% (3×); in experiment [3] (rate 120 g/100 kg seeds), 0%.

On to `Nc1nc(OCc2ccc(F)cc2)ncc1F` [Compound 1, 5-Fluoro-2-(4-fluorobenzyloxy)pyrimidin-4-amine], for which the pest or weed control at 25 ppm lay within 26 to 50% in experiment [4] (25 ppm, read-out: CERCBE 1 DP 25 ppm); 76 to 100% in experiment [1] (setting [6]); 76 to 100% in experiment [1] (setting [8]); 76 to 100% in experiment [2]. Moreover, the pest or weed control at 75 ppm is 26 to 50% in experiment [4] (75 ppm, read-out: CERCBE 1 DP 75 ppm) and 76 to 100% in experiment [2]. The pest or weed control at 100 ppm in experiment [1] (setting [7]) and in experiment [1] (setting [9]) was 76 to 100% throughout. For the same compound, in experiment [5] (50 ppm), the “MYCOFI 1 DP 50 ppm” value was “C (26-50)”. In addition, in experiment [5] (200 ppm), the “MYCOFI 1 DP 200 ppm” value is “B (51-75)”.
